Like-named read-outs stand apart in the source and are kept apart here.
Key:
human histamine H3R = molecular target: T1, human histamine H3R (Homo sapiens, UniProt Q9Y5N1); assay: [3H]Nα-methylhistamine radioligand displacement assay, HEK-293 cell membranes; format: binding
T1 construct: expressed in transfected cells
Experimental: As described previously, the affinity for the human histamine H3R was tested utilizing radioligand displacement assays with [^3H]N^α-methylhistamine at membrane preparations from human embryonic kidney (HEK)-293 cells, stably expressing the receptor. […] The analysis of data was conducted by the software GraphPad Prism 7 (San Diego, CA, USA), using the “one-site competition” equation. Ki values were calculated from the 50 percent of inhibitory concentration (IC50) values according to the Cheng-Prusoff equation [44]

hH4R = molecular target: T2, hH4R (Homo sapiens, UniProt Q9H3N8); assay: H4R radioligand displacement assay, Sf9 cell membrane preparations; format: binding
T2 construct: expressed in transfected cells; host or cells: Sf9 insect cells (membrane preparations)
Experimental: H4R radioligand displacement assays were performed with Sf9 cell membrane preparations, expressing the hH4R, as described previously. Assays ran in triplicates with four appropriate concentrations of the test compound. Data were analyzed by GraphPad Prism 7, using the “one-site competition” equation.

human H1 receptor = molecular target: T3, human H1 receptor (Homo sapiens, UniProt P35367); assay: Radioligand binding, membranes from CHO-K1 cells
T3 construct: purchased PerkinElmer; host or cells: CHO-K1 cells, stably transfected (membranes)
Experimental: Radioligand binding was performed as previously described using membranes from CHO-K1 cells stably transfected with the human H1 receptor (PerkinElmer., Waltham, MA, USA). Data were fitted to a one-site curve-fitting equation with Prism 6 (GraphPad Software, city, state, country) and Ki values were estimated from the Cheng–Prusoff equation [44].

MES-induced seizure = assay: Maximal electroshock (MES)-induced seizure; format: in vivo, Wistar rats; settings: 10 mg/kg i.p.; for MES-Induced Seizure (protection class): 50 Hz, 120 mA, 1 s
Text: As previously described, the seizures were induced in rats with a 50 Hz alternating current of 120 mA intensity. The current was applied through ear electrodes for 1 s. Protection against the spread of MES-induced seizure was defined as the abolition of the tonic hind limb extension (THLE) component of the seizure. For the first screening of protective effects of test compounds 1–16 in the MES-induced seizure model, the animals were divided into eighteen groups of seven rats (n = 7) as follows; group (1) control group injected with vehicle (SAL), group (2) positive control group in which rats were injected with PHT at a dose of 10 mg/kg (this being the minimal dose of PHT that protected animals against the spread of MES-induced seizures without mortality), and groups (3)–(18) animals in the experimental groups were administered H3R antagonists 1–16 at a dose of 10 mg/kg. In another MES experiment in three separate groups of six rats (n = 6), H3R antagonist 4 with the most promising protection in MES model was administered at doses of 2.5, 5, or 15 mg/kg, i.p. 30–45 min before the MES challenge.

STR-induced seizure = assay: Strychnine (STR)-induced seizure; format: in vivo, Wistar rats; settings: for STR-Induced Seizure (protection class): STR 3.5 mg/kg
Experimental: (§1) In this study and according to previously used protocols, two chemical agents have been used to induce seizures, namely pentylenetetrazole (PTZ, 60 mg/kg, i.p.) and strychnine (STR, 3.5 mg/kg, i.p.). PTZ 60 mg/kg or STR 3.5 mg/kg were administered i.p. to all groups of seven rats (n = 7), that is, animals pretreated with vehicle or test compounds 1–16. Vehicle, VPA (300 mg/kg, i.p.), [26, 47, 48, 49] or test compounds 1–16 (10 mg/kg, i.p.) were systemically administered 30–45 min before PTZ (60 mg/kg, i.p.) or STR (3.5 mg/kg, i.p.) injection, and animals were directly observed for any signs of convulsion for a duration of 30 min. The observed scores as well as percent protection against generalized tonic-clonic seizure (GTCS) were graded and scaled according to the Racine scale (stage 0, no change in behavior; stage 1, stereotype mouthing, eye blinking, and/or mild facial clonus; stage 2, head nodding and/or severe facial clonus; stage 3, myoclonic jerk in forelimbs; stage 4, clonic convulsions in the forelimbs with rearing; stage 5, generalized colonic convulsions associated with loss of balance) to evaluate the protection provided by the respective test compound against seizures. The animals were divided into eighteen groups of seven rats (n = 7) and treated as follows.
(§2) (1) Control group injected with vehicle + PTZ (SAL group), (2) positive control group in which rats were injected with VPA (300 mg/kg) + PTZ (VPA group), and animals in the test groups (3)–(18) were systemically administered with test compounds 1–16 (10 mg/kg), respectively. An additional PTZ experiment was conducted using three different groups of seven rats (n = 7), the H3R ligand with the most promising protection in PTZ model was administered at doses of 2.5, 5, or 15 mg/kg, i.p. 30–45 min before the PTZ challenge. […] The same experimental procedure was followed in the STR-induced seizure model applying the reference drug VPA, which was used at a dose of 300 mg/kg, i.p. (Figure 3, Table 2).

PTZ-induced seizure = assay: Pentylenetetrazole (PTZ)-induced seizure; format: in vivo, Wistar rats; settings: 10 mg/kg i.p.; for PTZ-Induced Seizure (protection class): PTZ 60 mg/kg
Experimental: as §1, §2

Hepatoma HepG2 cell line = assay: Antiproliferative assay (MTS), HepG2; format: cell-based; settings: 72 h incubation
Experimental: Human embryonic kidney (HEK)-293 cell line (ATCC CRL-1573) was kindly donated by Prof. Dr. […] (Pharmaceutical Institute, Pharmaceutical Chemistry I, University of Bonn). Hepatoma HepG2 (ATCC HB-8065) cell line was kindly donated by the Department of Pharmacological Screening, Jagiellonian University Medical College. The cell cultures' growth conditions in presence of H3R antagonist 4 were applied as described before. The cells' viability was assessed after 72 h of incubation with H3R antagonist and the following references: doxorubicin (Sigma-Aldrich) and carbonyl cyanide 3-chlorophenylhydrazone (CCCP) (Sigma-Aldrich). CellTiter 96® AQueous non-radioactive cell proliferation assay (MTS) was purchased from Promega® and added to each well in the volume of 20 μL. The cells were then incubated for 2-5 h. The microplate reader EnSpire (PerkinElmer Ltd., Waltham, MA, USA) was used to measure the absorbance at 490 nm.

CYP2D6 = CYP2D6 (Homo sapiens, UniProt P10635); assay: Luminescent CYP2D6 P450-Glo assay; settings: human
Experimental: The metabolic interactions of H3R antagonist 4 were determined by the luminescent P450-Glo™ 3A4 and 2D6 assays purchased from Promega®. All enzymatic reactions were performed according to the manufacturer protocols and as previously described. […] The luminescence was measured with a microplate reader EnSpire (PerkinElmer). The final concentration of H3R antagonist 4 was in the range of 0.1–25 µM, whereas reference inhibitory effects ranged from 0.01 µM to 10 µM. The IC50 values’ calculations were performed by GraphPad Prism™ software (version 5.01, San Diego, CA, USA).

[1] = 10 mg/kg i.p. co-administered with RAMH 10 mg/kg i.p.

T3 sequence (P35367 whole entry): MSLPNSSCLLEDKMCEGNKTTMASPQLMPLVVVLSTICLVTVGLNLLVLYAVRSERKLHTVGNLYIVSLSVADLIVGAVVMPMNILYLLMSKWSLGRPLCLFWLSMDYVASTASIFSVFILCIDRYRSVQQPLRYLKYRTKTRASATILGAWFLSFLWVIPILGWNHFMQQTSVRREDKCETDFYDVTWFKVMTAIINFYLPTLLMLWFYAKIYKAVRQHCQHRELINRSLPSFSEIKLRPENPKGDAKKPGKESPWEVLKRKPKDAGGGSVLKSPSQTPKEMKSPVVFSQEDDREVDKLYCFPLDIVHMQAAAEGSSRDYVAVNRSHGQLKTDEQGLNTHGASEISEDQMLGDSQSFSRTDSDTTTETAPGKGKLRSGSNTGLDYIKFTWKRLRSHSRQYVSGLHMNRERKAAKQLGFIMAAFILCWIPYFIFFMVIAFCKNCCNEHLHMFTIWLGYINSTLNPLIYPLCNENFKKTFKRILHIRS
T1 sequence (Q9Y5N1 whole entry): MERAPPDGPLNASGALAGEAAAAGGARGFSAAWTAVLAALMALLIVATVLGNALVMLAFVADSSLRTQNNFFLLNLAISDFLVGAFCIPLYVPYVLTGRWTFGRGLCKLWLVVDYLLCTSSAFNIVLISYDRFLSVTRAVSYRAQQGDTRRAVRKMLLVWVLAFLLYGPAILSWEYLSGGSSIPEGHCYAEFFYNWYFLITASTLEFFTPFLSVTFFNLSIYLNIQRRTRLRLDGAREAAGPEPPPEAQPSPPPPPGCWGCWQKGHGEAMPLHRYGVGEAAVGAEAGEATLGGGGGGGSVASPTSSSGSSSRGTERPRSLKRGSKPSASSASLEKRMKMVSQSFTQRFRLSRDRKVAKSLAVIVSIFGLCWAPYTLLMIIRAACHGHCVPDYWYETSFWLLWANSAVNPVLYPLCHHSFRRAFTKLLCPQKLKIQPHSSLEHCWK
Chain of CYP2D6 (P10635 whole entry): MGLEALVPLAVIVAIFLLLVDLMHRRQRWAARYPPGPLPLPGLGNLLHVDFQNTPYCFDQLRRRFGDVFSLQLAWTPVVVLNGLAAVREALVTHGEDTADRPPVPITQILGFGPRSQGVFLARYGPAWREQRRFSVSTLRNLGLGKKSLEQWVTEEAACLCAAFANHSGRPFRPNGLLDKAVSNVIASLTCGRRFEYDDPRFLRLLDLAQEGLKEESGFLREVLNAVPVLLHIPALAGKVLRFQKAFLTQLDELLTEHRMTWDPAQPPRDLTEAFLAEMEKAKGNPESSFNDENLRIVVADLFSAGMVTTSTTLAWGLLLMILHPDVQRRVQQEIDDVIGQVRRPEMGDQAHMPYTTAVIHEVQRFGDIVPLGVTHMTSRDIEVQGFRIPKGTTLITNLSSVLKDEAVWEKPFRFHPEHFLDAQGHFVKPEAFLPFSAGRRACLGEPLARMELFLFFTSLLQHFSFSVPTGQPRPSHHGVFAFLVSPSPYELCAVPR
T2 sequence (Q9H3N8 whole entry): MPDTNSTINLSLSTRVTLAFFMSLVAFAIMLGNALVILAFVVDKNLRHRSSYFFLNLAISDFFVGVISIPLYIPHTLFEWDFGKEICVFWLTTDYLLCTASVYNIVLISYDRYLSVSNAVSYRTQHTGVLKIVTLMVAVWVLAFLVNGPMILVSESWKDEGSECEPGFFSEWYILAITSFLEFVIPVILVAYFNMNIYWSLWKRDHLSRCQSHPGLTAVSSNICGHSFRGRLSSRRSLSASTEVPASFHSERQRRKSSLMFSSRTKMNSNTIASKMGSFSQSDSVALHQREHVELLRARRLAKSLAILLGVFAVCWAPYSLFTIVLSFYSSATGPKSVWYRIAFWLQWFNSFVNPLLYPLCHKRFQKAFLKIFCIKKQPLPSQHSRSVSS

Compound: Fc1ccc(OCCCCCCN2CCCCCC2)cc1.O=C(O)C(=O)O [Ligand 13, 1-(6-(4-fluorophenoxy)hexyl)azepane hydrogen oxalate]
- Ki (human histamine H3R; mean with 95% confidence interval, read-out: In Vitro Affinity Ki (hH3R) in nM [CI]): 137 nM
- Ki (hH4R): > 10 µM
- Ki (human H1 receptor): 1340 nM
- fold lower affinity at hH1- and H4Rs than at H3R (human H1 receptor; selectivity toward H3Rs): at least 10 fold
- MES-Induced Seizure Average THLE (MES-induced seizure): 6.43 ± 1.14 s
- protective effect in MES-induced seizure (in words) (MES-induced seizure; vs saline-treated group): without protection
- MES-Induced Seizure (protection class) (MES-induced seizure): −
- STR-Induced Seizure % Protection against GTCS (STR-induced seizure; 2.5 mg/kg i.p.): 14.29%
- STR-Induced Seizure Average Seizure Score (STR-induced seizure; 2.5 mg/kg i.p.): 4.86 ± 0.13
- STR-Induced Seizure % Protection against GTCS (STR-induced seizure; 5 mg/kg i.p.): 85.71%
- STR-Induced Seizure Average Seizure Score (STR-induced seizure; 5 mg/kg i.p.): 3.00 ± 0.31
- STR-Induced Seizure % Protection against GTCS (STR-induced seizure; 10 mg/kg i.p.): 100%
- STR-Induced Seizure Average Seizure Score (STR-induced seizure; 10 mg/kg i.p.): 2.00 ± 0.35
- STR-Induced Seizure % Protection against GTCS (STR-induced seizure; [1]): 100%
- STR-Induced Seizure Average Seizure Score (STR-induced seizure; [1]): 2.14 ± 0.35
- protective effect in STR-induced seizure (in words) (STR-induced seizure; 10 mg/kg i.p., 30 min observation, vs saline-treated group): moderate protective effect
- STR-Induced Seizure (protection class) (STR-induced seizure; 10 mg/kg i.p.): + (moderate protective effect (tonic hind limb extension (THLE) duration in the range of 2–5 s, seizure score in the range of 2–4))
- STR-Induced Seizure % Protection against GTCS (STR-induced seizure; 15 mg/kg i.p.): 100%
- STR-Induced Seizure Average Seizure Score (STR-induced seizure; 15 mg/kg i.p.): 2.17 ± 0.31
- PTZ-Induced Seizure % Protection against GTCS (PTZ-induced seizure): 85.71%
- PTZ-Induced Seizure Average Seizure Score (PTZ-induced seizure): 2.14 ± 0.47
- protective effect in PTZ-induced seizure (in words) (PTZ-induced seizure; observed over 30 min, vs saline-treated group): weak protection
- PTZ-Induced Seizure (protection class) (PTZ-induced seizure): + (moderate protective effect (tonic hind limb extension (THLE) duration in the range of 2–5 s, seizure score in the range of 2–4))

Compound: N#CC(C#N)=NNc1cccc(Cl)c1 [CCCP, carbonyl cyanide 3-chlorophenylhydrazone, reference compound]
- concentration with significant decrease of HepG2 proliferation/viability (Hepatoma HepG2 cell line): 10 µM

Compound: CC1CCCN(CCCCCCOc2ccc(C(=O)c3ccccc3)cc2)C1.O=C(O)C(=O)O (stereo not drawn) [Ligand 6, (4-(6-(3-methylpiperidin-1-yl)hexyloxy)phenyl)(phenyl)methanone hydrogen oxalate]
- Ki (human histamine H3R): 52.8 nM
- Ki (human H1 receptor): 915 to 1340 nM
- IC50 (CYP2D6): 670 nM
- MES-Induced Seizure (protection class) (MES-induced seizure): + (moderate protective effect (tonic hind limb extension (THLE) duration in the range of 2–5 s, seizure score in the range of 2–4))
- STR-Induced Seizure (protection class) (STR-induced seizure; 10 mg/kg i.p.): −
- PTZ-Induced Seizure (protection class) (PTZ-induced seizure): −
